Results from US7795226B2, “Control of radiation injury” (Biotempt B.V., priority 2006, dated 2010).

Legend:
[1] = tested on: BALB/c mice exposed whole body to 10 Gy 137Cs-γ-irradiation; assay: Whole body γ-irradiation (10 Gy), peptide 1.5 hours before irradiation; type: in vivo; settings: 10 mg/kg i.p. 1.5 hours before 10 Gy; for Watery eyes / Weight loss: affected/total; for Mortality: dead/total
Experimental: (§1) In the first experiment, 12-week-old female BALB/c mice were treated intraperitoneally with a single injection of either PBS (n=9) or with a peptide (LQGV (SEQ ID NO:117), VLPALP (SEQ ID NO:140), LPGCPRGVNPVVS (SEQ ID NO:114), MTRVLQGVLPALPQVVC (SEQ ID NO:113); n=8, 10 mg/kg). One and a half hours after the treatment, mice were exposed whole body to a single dose of 10 Gy ^137Cs-γ-irradiation. In the second experiment, 12-week-old female BALB/c mice were first exposed whole body to a single dose of 10 Gy ^137Cs-γ-irradiation and then 1.5 hours after the irradiation treated intraperitoneally with a single injection of either PBS (n=9) or with a peptide (n=8 or 9, 10 mg/kg).

[2] = tested on: BALB/c mice exposed whole body to 10 Gy 137Cs-γ-irradiation; assay: Whole body γ-irradiation (10 Gy), peptide 1.5 hours after irradiation; type: in vivo; settings: 10 mg/kg i.p. 1.5 hours after 10 Gy; for Watery eyes / Weight loss: affected/total; for Mortality: dead/total
Experimental: as §1

[3] = tested on: cell-cycle marker pCDG and auxin-responsive marker DR5::GUS; assay: Arabidopsis thaliana seedling cell-cycle analysis (GUS markers)
Experimental: To further study anti-cell-cycle activity of various oligopeptides, a proliferation experiment in Arabidopsis Thaliana seedlings was performed. The aim was to test a group of 140 oligopeptides of varying length for their effect on plant marker gene expression during rapid growth when avid cell division occurs.
The peptides were re-suspended in 1× Phosphate Buffer Saline (PBS) pH 8 to a final concentration of 5 mg/ml. The obtained solutions were then divided through 96-well round bottom plates (Corning Incorporated) at 40 microliters per well. Plates were stored before use at […] for four days. Seeds of Arabidopsis thaliana ecotype Ws-0 were surface sterilized in 2% commercial bleach (Gloria) for ten minutes and washed five times with sterile MQ water. The seeds were then re-suspended with 0.1% agar and plated on MS20 plates supplemented with 80 mg/l Kanamycin.
The plates were placed at […] for two nights and then transferred to a climate room at […] and a 16/8 hours photoperiod. After four days of growth, the seedlings were transferred to 96-well plates containing the peptide solutions (four seedlings per well) and incubated for four and eight hours.
For this experiment, Arabidopsis homozygous seedlings harboring two reporter genes fused to GUS were used. […] After incubation with the compounds, the seedlings were stained for GUS. The staining reaction was performed in 100 mM sodium phosphate buffer (pH 7.0) that contained 10 mM EDTA, 10% DMSO, 0.1% Triton X-100, 2 mM X-Gluc, 0.5 mM K3Fe(CN)6 and 0.5 mM K4Fe(CN)6 at […] for 16 hours. […] Seedlings were fixed and cleared in chloral hydrate solution for detailed microscopic observation and photography under a microscope equipped with DIC optics.
Peptides were tested for an effect on marker gene expression on rapidly growing Arabidopsis young seedlings. This was monitored by changes on GUS distribution in different organs: root, root-hypocotyl transition zone and cotyledons.

[4] = tested on: high dose LPS (E. coli 026:B6)-induced septic shock in BALB/c mice; assay: high dose LPS-induced septic shock, peptide administered twice; type: in vivo; settings: peptide twice (t = 2 and 24 hours) 5 mg/kg
Experimental: (§2) Mice used in sepsis or septic shock experiments: Female BALB/c mice of eight to twelve weeks of age were used for all experiments. The animals were bred in our facility under specific pathogen-free conditions according to the protocols described in the […] of European Laboratory Animal Science Associations (FELASA) Working group on Animal Health (Laboratory Animals 28:1-24, 1994).
(§3) Injection protocols: For the endotoxin model, BALB/c mice were injected i.p. with 150-300 μg LPS (E. coli 026:B6; Difco Lab., Detroit, Mich., USA). Control groups were treated with PBS i.p. only. To test the effect of peptides, they were dissolved in PBS and injected i.p. at predetermined points in time after LPS treatment.
(§4) Mice were scored for sickness severity using the following measurement scheme: • 0 No abnormalities. • 1 Percolated fur, but no detectable behavior differences compared to normal mice. • 2 Percolated fur, huddle reflex, responds to stimuli (such as tap on cage), just as active during handling as healthy mouse. • 3 Slower response to tap on cage, passive or docile when handled, but still curious when alone in a new setting. • 4 Lack of curiosity, little or no response to stimuli, quite immobile. • 5 Labored breathing, inability or slow to self-right after being rolled onto back (moribund, sacrificed). • D Dead.
A second set of septic shock experiments were set up to determine which of the peptides LQG, LQGV (SEQ ID NO:117), VLPALP (SEQ ID NO:140), VLPALPQ (SEQ ID NO:143), MTR, MTRV (SEQ ID NO:119), VVC or AQG, AQGV (SEQ ID NO:120), LAG and LAGV (SEQ ID NO:121) were capable of inhibiting high dose LPS-induced septic shock in mice by treating mice with a double dose of peptide at two and 24 hours after LPS treatment. At each treatment, peptides were used at 5 mg/kg bodyweight. BALB/c mice were injected i.p. with high doses LPS (E. coli 026:B6; Difco Lab., Detroit, Mich. USA), predetermined to be leading to 80 to 100% mortality in 24 to 72 hours.

[5] = tested on: LPS (E. coli 026:B6)-induced sepsis in BALB/c mice; assay: endotoxin shock survival after early or late treatment with peptide; type: in vivo
Experimental: as §2, §3
A further set of septic shock experiments were set up to determine which of the peptides LQG, LQGV (SEQ ID NO:117), VLPALP (SEQ ID NO:140), VLPALPQ (SEQ ID NO:143), MTR, MTRV (SEQ ID NO:119), VVC or AQGV (SEQ ID NO:120) under study were most suited to be used early and/or late after or throughout the development of shock. For determining the percent of endotoxin shock survival after late or early treatment with peptide, BALB/c mice were injected i.p. with 300 μg LPS (E. coli 026:B6; Difco Lab., Detroit, Mich. USA), predetermined to be leading to 100% mortality in 48 hours without peptide treatment.
To evaluate the effect of peptide treatment at an early or late point in time of development of shock, mice were treated at two hours or at 24 hours after LPS injection by i.p. injection with test peptide at 5 mg/kg bodyweight. The mice were followed for 84 hours instead of for 48 hours in the earlier experiments.

[6] = tested on: LPS (E. coli 026:B6)-induced septic shock in BALB/c mice; assay: LPS-induced septic shock, single dose of peptide; type: in vivo; settings: single dose 5 mg/kg
Experimental: as §2, §3, §4
A first set of septic shock experiments were set up to determine which of the peptides LQG, LQGV (SEQ ID NO:117), VLPALP (SEQ ID NO:140), VLPALPQ (SEQ ID NO:143), MTR, MTRV (SEQ ID NO:119), VVC or QVVC (SEQ ID NO:118) were capable of inhibiting lipopolysaccharide (LPS)-induced septic shock in mice by treating mice with a single dose of peptide at two hours after LPS treatment. Peptides were used at 5 mg/kg bodyweight. BALB/c mice were injected i.p. with escalating doses LPS (E. coli 026:B6; Difco Lab., Detroit, Mich. USA), predetermined to be leading to 80 to 100% mortality in 24 to 72 hours.
To test the effect of peptide early in the development of shock, mice were treated at two hours or at 24 hours after treatment with varying doses of LPS by i.p. injection with test peptide at 5 mg/kg bodyweight.

[7] = tested on: gamma-irradiated mice; settings: mouse, in vivo; cited from earlier work

## MTRVLQGVLPALPQVVC [residues 41-57 of loop 2 of the beta-subunit of hCG]
[1]; day 0 after irradiation
  Watery eyes: 0/8
  Weight loss: 0/8
  Mortality: 0/8
[1]; day 3 after irradiation
  Mortality: 0/8
[1]; day 4 after irradiation
  Watery eyes: 1/8
  Weight loss: 1/8
  Mortality: 0/8
[1]; day 5 after irradiation
  Mortality: 0/8
[1]; day 6 after irradiation
  Mortality: 7/8
[1]; day 7 after irradiation
  Mortality: 8/8
[2]; day 0 after irradiation
  Watery eyes: 0/9
  Weight loss: 0/9
  Mortality: 0/9
[2]; day 3 after irradiation
  Mortality: 0/9
[2]; day 4 after irradiation
  Watery eyes: 0/9
  Weight loss: 9/9
  Mortality: 0/9
[2]; day 5 after irradiation
  Mortality: 0/9
[2]; day 6 after irradiation
  Mortality: 5/9
[2]; day 7 after irradiation
  Mortality: 9/9

## VVC
[3]; Results from Examples 9 and 10
  identified as useful peptide for treatment of radiation injury from cell-cycle studies in plants and in vitro proliferation studies: useful
[3]; seedlings incubated four and eight hours, 5 mg/ml peptide solution
  effect on cell-cycle marker (pCDG) and auxin-responsive marker (DR5::GUS) (in words): clear effect on the tested markers
[4]; LPS dose 10.5
  mice with sickness score 1, effect at t = 48 hours: 2
  mice with sickness score 2, effect at t = 24 hours: 5
  mice with sickness score 2, effect at t = 48 hours: 3
[4]; LPS dose 11
  mice with sickness score 1, effect at t = 48 hours: 2
  mice with sickness score 2, effect at t = 24 hours: 6
  mice with sickness score 2, effect at t = 48 hours: 4
[5]; 0 hours, peptide 5 mg/kg 2 hours after LPS
  % Survival: 100%
[5]; 0 hours, peptide 5 mg/kg 24 hours after LPS
  % Survival: 100%
[5]; 14 hours, peptide 5 mg/kg 2 hours after LPS
  % Survival: 100%
[5]; 14 hours, peptide 5 mg/kg 24 hours after LPS
  % Survival: 100%
[5]; 24 hours, peptide 5 mg/kg 2 hours after LPS
  % Survival: 100%
[5]; 24 hours, peptide 5 mg/kg 24 hours after LPS
  % Survival: 100%
[5]; 48 hours, peptide 5 mg/kg 2 hours after LPS
  % Survival: 80%
[5]; 48 hours, peptide 5 mg/kg 24 hours after LPS
  % Survival: 100%
[5]; 84 hours, peptide 5 mg/kg 2 hours after LPS
  % Survival: 50%
[5]; 84 hours, peptide 5 mg/kg 24 hours after LPS
  % Survival: 100%
[6]; LPS dose 7**
  mice scored D (dead), effect at t = 24 hours: 1
  mice scored D (dead), effect at t = 48 hours: 3
  mice with sickness score 1, effect at t = 48 hours: 1
  mice with sickness score 2, effect at t = 48 hours: 1
  mice with sickness score 3, effect at t = 24 hours: 2
  mice with sickness score 3, effect at t = 48 hours: 1
  mice with sickness score 4, effect at t = 24 hours: 1
  mice with sickness score 5, effect at t = 24 hours: 2
[6]; LPS dose 7*
  mice with sickness score 2, effect at t = 48 hours: 4
  mice with sickness score 3, effect at t = 24 hours: 4
  mice with sickness score 4, effect at t = 24 hours: 2
  mice with sickness score 5, effect at t = 48 hours: 2
[6]; LPS dose 10
  mice with sickness score 1, effect at t = 48 hours: 2
  mice with sickness score 2, effect at t = 24 hours: 2
  mice with sickness score 2, effect at t = 48 hours: 2
  mice with sickness score 3, effect at t = 24 hours: 2
  mice with sickness score 4, effect at t = 24 hours: 2
  mice with sickness score 5, effect at t = 48 hours: 2

## C[C@]12CC[C@H](O)CC1=CC[C@@H]1[C@@H]2CC[C@]2(C)C(=O)CC[C@@H]12 [DHEA, dehydroepiandrosterone]
[7]
  protection against gamma-irradiation (in words): No protection was observed

## C[C@]12CC[C@H]3[C@@H]([C@@H](O)C=C4C[C@@H](O)CC[C@@]43C)[C@@H]1CC[C@@H]2O [AET, 5-androstene-3B,7B, 17B-triol]
[7]
  protection against gamma-irradiation (in words): No protection was observed

## LPGCPRGVNPVVS
[1]; day 0 after irradiation
  Watery eyes: 0/8
  Weight loss: 0/8
  Mortality: 0/8
[1]; day 3 after irradiation
  Mortality: 0/8
[1]; day 4 after irradiation
  Watery eyes: 1/8
  Weight loss: 8/8
  Mortality: 0/8
[1]; day 5 after irradiation
  Mortality: 0/8
[1]; day 6 after irradiation
  Mortality: 4/8
[1]; day 7 after irradiation
  Mortality: 8/8
[2]; day 0 after irradiation
  Watery eyes: 0/8
  Weight loss: 0/8
  Mortality: 0/8
[2]; day 3 after irradiation
  Mortality: 0/8
[2]; day 4 after irradiation
  Watery eyes: 0/8
  Weight loss: 8/8
  Mortality: 0/8
[2]; day 5 after irradiation
  Mortality: 0/8
[2]; day 6 after irradiation
  Mortality: 6/8
[2]; day 7 after irradiation
  Mortality: 8/8

## C[C@]12CCC(=O)C=C1CC[C@@H]1[C@@H]2CC[C@]2(C)C(=O)CC[C@@H]12 [androstenedione]
[7]
  protection against gamma-irradiation (in words): No protection was observed
